Target: T1, human H4 receptor (Homo sapiens, UniProt Q9H3N8)
T1 construct: expressed in transfected cells
Experiment: [3H]Histamine binding on membranes of CHO cells stably expressing human H4 receptor
In short: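 First, thawed CHO membranes carrying human H4 were diluted to 20 μg protein per well in pH 7.4 Tris/EDTA buffer. Next, incubation was ended by rapid filtration through PEI-treated GF/B filters followed by cold rinses. Finally, retained radioactivity was counted; 10 μM JNJ 7777120 marked nonspecific binding.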

| SMILES | Ki or IC50 activity class [nM] |
| --- | --- |
| CN1CCC(OC(c2cccc(C#CCN3C(=O)c4ccccc4C3=O)c2)c2nc3ccccc3[nH]2)CC1 (stereo not shown) [Example 189, 2-(3-{3-[(1H-benzimidazol-2-yl)(1-methylpiperidin-4-yloxy)methyl]phenyl}prop-2-ynyl)isoindole-1,3-dione] | < 300 |
| C#Cc1cccc(C(OC2CCN(C)CC2)c2nc3ccccc3[nH]2)c1 (stereo not shown) [Example 195, 2-[(3-ethynylphenyl)(1-methylpiperidin-4-yloxy)methyl]-1H-benzimidazole] | < 300 |
| CN1CCC(OC(c2cccc(OCc3cccc([N+](=O)[O-])c3)c2)c2nc3ccccc3s2)CC1 (stereo not shown) [Example 196, 2-{(1-methylpiperidin-4-yloxy)[3-(3-nitro-benzyloxy)phenyl]methyl}benzothiazole] | < 30 |
| CN1CCC(OC(c2cccc(C#N)c2)c2nc3ccccc3s2)CC1 (stereo not shown) [Example 197, 3-[benzothiazol-2-yl(1-methylpiperidin-4-yloxy)methyl]benzonitrile] | < 30 |
| CN1CCC(OC(c2cccc(-c3c[nH]nn3)c2)c2nc3ccccc3[nH]2)CC1 (stereo not shown) [Example 198, 2-{(1-methylpiperidin-4-yloxy)[3-(1H-[1,2,3]triazol-4-yl)phenyl]methyl}-1H-benzimidazole] | < 30 |
| COC(=O)c1cccc(C(OC2CCN(C)CC2)c2nc3ccccc3s2)c1 (stereo not shown) [Example 199, 3-[benzothiazol-2-yl(1-methylpiperidin-4-yloxy)methyl]benzoic acid methyl ester] | < 300 |
| CSc1cccc(C(OC2CCN(C)CC2)c2nc3ccccc3s2)c1 (stereo not shown) [Example 201, 2-[(1-methylpiperidin-4-yloxy)(3-methylsulfanyl-phenyl)methyl]benzothiazole] | < 30 |
| CSc1cccc(C(OC2CCN(C)CC2)c2nc3ccccc3[nH]2)c1 (stereo not shown) [Example 202, 2-[(1-methylpiperidin-4-yloxy)(3-methylsulfanyl-phenyl)methyl]-1H-benzimidazole] | < 30 |
| CN1CCC(OC(c2cccc(S(C)(=O)=O)c2)c2nc3ccccc3s2)CC1 (stereo not shown) [Example 203, 2-[(3-methanesulfonylphenyl)(1-methylpiperidin-4-yloxy)methyl]benzothiazole] | < 1000 |
| CN1CCC(OC(c2cccc(C=CC(=O)OC(C)(C)C)c2)c2nc3ccccc3s2)CC1 (stereo not shown) [Example 205, 3-{3-[benzothiazol-2-yl(1-methylpiperidin-4-yloxy)methyl]phenyl}acrylic acid tert-butyl ester] | < 1000 |
| CCOC(=O)c1cccc(C(OC2CCN(C)CC2)c2nc3ccccc3s2)c1 (stereo not shown) [Example 206, 3-[benzothiazol-2-yl(1-methylpiperidin-4-yloxy)methyl]benzoic acid ethyl ester] | < 300 |
| CN1CCC(OC(c2cccc(CO)c2)c2nc3ccccc3s2)CC1 (stereo not shown) [Example 207, {3-[benzothiazol-2-yl(1-methylpiperidin-4-yloxy)methyl]phenyl}methanol] | < 1000 |
| CN1CCC(OC(c2cccc(CCC(=O)OC(C)(C)C)c2)c2nc3ccccc3s2)CC1 (stereo not shown) [Example 208, 3-{3-[benzothiazol-2-yl(1-methylpiperidin-4-yloxy)methyl]phenyl}propionic acid tert-butyl ester] | < 300 |
| CN1CCC(OC(c2cccc(C=CS(=O)(=O)c3ccccc3)c2)c2nc3ccccc3s2)CC1 (stereo not shown) [Example 209, 2-[[3-(2-benzenesulfonylvinyl)phenyl](1-methylpiperidin-4-yloxy)methyl]benzothiazole] | < 300 |
| COc1ccc(-c2cccc(C(NC3CCN(C)CC3)c3nc4ccccc4s3)c2)cc1 (stereo not shown) [Example 211, [benzothiazol-2-yl(4′-methoxybiphenyl-3-yl)methyl](1-methylpiperidin-4-yl)amine] | < 300 |
| CN1CCC(OC(c2cccc(C=CS(C)(=O)=O)c2)c2nc3ccccc3s2)CC1 (stereo not shown) [Example 212, 2-[[3-(2-methanesulfonylvinyl)phenyl](1-methylpiperidin-4-yloxy)methyl]benzothiazole] | < 1000 |
| Cc1ccc(C(OC2CCN(C)CC2)c2nc3ccccc3[nH]2)c(Cl)c1 (stereo not shown) [Example 213, 2-[(2-chloro-4-methylphenyl)(1-methylpiperidin-4-yloxy)methyl]-1H-benzimidazole] | < 300 |
| CN1CCC(OC(c2cccc(SC(C)(C)C)c2)c2nc3ccccc3[nH]2)CC1 (stereo not shown) [Example 215, 2-[(3-tert-butylsulfanylphenyl)(1-methylpiperidin-4-yloxy)methyl]-1H-benzimidazole] | < 300 |
| CN1CCC(OC(c2cccc(C=CC#N)c2)c2nc3ccccc3s2)CC1 (stereo not shown) [Example 217, 3-{3-[benzothiazol-2-yl(1-methylpiperidin-4-yloxy)methyl]phenyl}acrylonitrile] | < 300 |
| CN1CCC(OC(c2cccc(C(=O)N(C)Cc3ccccc3)c2)c2nc3ccccc3s2)CC1 (stereo not shown) [Example 219, 3-[benzothiazol-2-yl(1-methylpiperidin-4-yloxy)methyl]-N-benzyl-N-methylbenzamide] | < 1000 |
| CN1CCC(OC(c2nc3ccccc3[nH]2)c2ccc(F)cc2F)CC1 (stereo not shown) [Example 221, 2-[(2,4-difluorophenyl)(1-methylpiperidin-4-yloxy)methyl]-1H-benzimidazole] | < 300 |
| CN1CCC(OC(c2cccc(C(=O)N(C)c3ccccc3)c2)c2nc3ccccc3s2)CC1 (stereo not shown) [Example 223, 3-[benzothiazol-2-yl(1-methylpiperidin-4-yloxy)methyl]-N-methyl-N-phenylbenzamide] | < 300 |
| CN1CCC(OC(c2cccc(Cl)c2)c2nc3ccccc3[nH]2)CC1 (stereo not shown) [Example 225, 2-[(3-chlorophenyl)(1-methylpiperidin-4-yloxy)methyl]-1H-benzimidazole] | < 300 |
| CN1CCC(OC(c2ccc(Cl)cc2)c2nc3ccccc3[nH]2)CC1 (stereo not shown) [Example 226, 2-[(4-chlorophenyl)(1-methylpiperidin-4-yloxy)methyl]-1H-benzimidazole] | < 300 |
| CN1CCC(OC(c2cccc(C#CCO)c2)c2nc3ccccc3s2)CC1 (stereo not shown) [Example 227, 3-{3-[benzothiazol-2-yl(1-methylpiperidin-4-yloxy)methyl]phenyl}prop-2-yn-1-ol] | < 30 |
| CN1CCC(OC(c2cccc(OCc3cccc(N)c3)c2)c2nc3ccccc3s2)CC1 (stereo not shown) [Example 228, 3-{3-[benzothiazol-2-yl(1-methylpiperidin-4-yloxy)methyl]phenoxymethyl}phenylamine] | < 30 |

The remaining lines, values ahead:

| Ki or IC50 activity class [nM] | SMILES |
| --- | --- |
| < 1000 | CN1CCC(OC(c2cccc(SCCc3cnccn3)c2)c2nc3ccccc3[nH]2)CC1 (stereo not shown) [Example 232, 2-{(1-methylpiperidin-4-yloxy)[3-(2-pyrazin-2-yl-ethylsulfanyl)phenyl]methyl}-1H-benzimidazole] |
| < 300 | CN1CCC(OC(c2cccc(SCCc3cnccn3)c2)c2nc3ccccc3s2)CC1 (stereo not shown) [Example 233, 2-{(1-methylpiperidin-4-yloxy)[3-(2-pyrazin-2-yl-ethylsulfanyl)phenyl]methyl}benzothiazole] |
| < 300 | CN1CCC(OC(c2cccc(NCc3ccccc3)c2)c2nc3ccccc3s2)CC1 (stereo not shown) [Example 234, {3-[benzothiazol-2-yl(1-methylpiperidin-4-yloxy)methyl]phenyl}benzyl-amine] |
| < 300 | CN1CCC(OC(c2cccc(C#CCCO)c2)c2nc3ccccc3s2)CC1 (stereo not shown) [Example 236, 4-{3-[benzothiazol-2-yl(1-methylpiperidin-4-yloxy)methyl]phenyl}but-3-yn-1-ol] |
| < 300 | CN1CCC(OC(c2cccc(C#CCCCO)c2)c2nc3ccccc3s2)CC1 (stereo not shown) [Example 237, 5-{3-[benzothiazol-2-yl(1-methylpiperidin-4-yloxy)methyl]phenyl}pent-4-yn-1-ol] |
| < 1000 | CN1CCC(OC(c2cccc(CCCCO)c2)c2nc3ccccc3s2)CC1 (stereo not shown) [Example 238, 4-{3-[benzothiazol-2-yl(1-methylpiperidin-4-yloxy)methyl]phenyl}butan-1-ol] |
| < 1000 | COC(=O)CC1(CSc2cccc(C(OC3CCN(C)CC3)c3nc4ccccc4s3)c2)CC1 (stereo not shown) [Example 239, (1-{3-[benzothiazol-2-yl(1-methylpiperidin-4-yloxy)methyl]phenylsulfanylmethyl}-cyclopropyl)acetic acid methyl ester] |
| < 300 | CN1CCC(OC(c2cccc(SCCn3nccn3)c2)c2nc3ccccc3s2)CC1 (stereo not shown) [Example 240, 2-{(1-methylpiperidin-4-yloxy)[3-(2-[1,2,3]triazol-2-yl-ethylsulfanyl)phenyl]methyl}benzothiazole] |
| < 300 | CN1CCC(OC(c2cccc(SCCn3ccnn3)c2)c2nc3ccccc3s2)CC1 (stereo not shown) [Example 241, 2-{(1-methylpiperidin-4-yloxy)[3-(2-[1,2,3]triazol-1-yl-ethylsulfanyl)phenyl]methyl}benzothiazole] |
| < 1000 | CN1CCC(OC(c2cccc(SC(C)(C)CCO)c2)c2nc3ccccc3s2)CC1 (stereo not shown) [Example 242, 3-{3-[benzothiazol-2-yl(1-methylpiperidin-4-yloxy)methyl]phenylsulfanyl}-3-methyl-butan-1-ol] |
| < 300 | CN1CCC(OC(c2cccc(N3CCOCC3)c2)c2nc3ccccc3s2)CC1 (stereo not shown) [Example 243, 2-[(1-methylpiperidin-4-yloxy)(3-morpholin-4-yl-phenyl)methyl]benzothiazole] |
| < 300 | CN1CCC(OC(c2cccc(OCCO)c2)c2nc3ccccc3s2)CC1 (stereo not shown) [Example 244, 2-{3-[benzothiazol-2-yl(1-methylpiperidin-4-yloxy)methyl]phenoxy}ethanol] |
| < 300 | C=Cc1cccc(C(OC2CCN(C)CC2)c2nc3ccccc3[nH]2)c1 (stereo not shown) [Example 245, 2-[(1-methylpiperidin-4-yloxy)(3-vinyl-phenyl)methyl]-1H-benzimidazole] |
| < 300 | CN1CCC(OC(c2cccc(SCCCCO)c2)c2nc3ccccc3[nH]2)CC1 (stereo not shown) [Example 248, 4-{3-[(1H-benzimidazol-2-yl)(1-methylpiperidin-4-yloxy)methyl]phenylsulfanyl}butan-1-ol] |
